Read-outs that look alike come from different tables or passages of the source.
What was measured:
Type in all cases: physicochemical
[1] = hydrolysis in the region of pH 4 to 10
[2] = pKa measured by pH variation and UV-VIS spectrum at 570 nm; details: water, pH 4, approximately 2×10^−5 mol L^−1 dye in water, pH varied 9.6 to 1.9, UV-VIS at 570 nm; dual pKa fit for the 2 -COOH groups
Procedure: (§1) pKa values (acid dissociation constant) were measured for the reference dye by dissolving approximately 2×10^−5 mol L^−1 of the dye in water then varying the pH from 9.6 to 1.9 and observing the changes in the UV-VIS spectrum at 570 nm. The pKa values are higher than expected for a free —COOH group which would be 3 to 4 and is attributed to the effect of the alkyl chains.

[3] = dissolution of dye in water for pKa measurement; details: approximately 2×10^−5 mol L^−1 in water, conditions analogous to the reference dye
Procedure: as §1

Row | Compound | hydrolysis [1] | pKa [2] | hydrolysis ([1]; listed as inventive compound) | dissolution in water [3]
1 | CCCCC/C=C/CC(CC(=O)OCCOCCN(CCOCCOC(=O)CC(C/C=C/CCCCC)C(=O)O)c1ccc(/N=N/c2sc(C#N)c(C)c2C#N)c(C)c1)C(=O)O (centres unmarked) [reference, reference compound] | observed | 7.5 | – | –
2 | C=COCCOCCN(CCOCCO)c1ccc(/N=N/c2sc(C#N)c(C)c2C#N)c(C)c1 [inventive] | not observed | – | resistant to hydrolysis | did not dissolve

Reference: patent US20220098525A1, “LAUNDRY DETERGENT” (Conopco, Inc., d/b/a UNILEVER, priority 2019, published 2022)
